These results are taken from ChEMBL document CHEMBL1240361 (2010).

Holding throughout (assay type): functional
The subject of test [1] is Staphylococcus aureus. Nature of the test: Antibacterial activity against methicillin-resistant Staphylococcus aureus infected in New Zealand white rabbit osteomyelitis model assessed as change in bacterial load in bone marrow per gram of tissue administered via constant iv infusion in presence of unloaded calcium-deficient apatites on day 3 post infection measured on day 7 by HPLC analysis.

Test [2] relates to Staphylococcus aureus. Put plainly: Antibacterial activity against methicillin-resistant Staphylococcus aureus infected in New Zealand white rabbit osteomyelitis model assessed as change in bacterial load in bone per gram of tissue at 100 ug/mg administered via calcium-deficient apatite on day 3 post infection measured on day 7 by HPLC analysis.
Test [3] relates to Staphylococcus aureus. Nature of the test: Antibacterial activity against methicillin-resistant Staphylococcus aureus infected in New Zealand white rabbit osteomyelitis model assessed as change in bacterial load in bone per gram of tissue at 25 ug/mg administered via calcium-deficient apatite on day 3 post infection measured on day 7 by HPLC analysis.
The test system of test [4] is Staphylococcus aureus. Nature of the test: Antibacterial activity against methicillin-resistant Staphylococcus aureus infected in New Zealand white rabbit osteomyelitis model assessed as change in bacterial load in bone per gram of tissue administered via constant iv infusion on day 3 post infection measured on day 7 by HPLC analysis.
The test system of test [5] is Staphylococcus aureus. Put plainly: Antibacterial activity against methicillin-resistant Staphylococcus aureus infected in New Zealand white rabbit osteomyelitis model assessed as change in bacterial load in joint fluid per gram of tissue at 25 ug/mg administered via calcium-deficient apatite followed by constant iv infusion on day 3 post infection measured on day 7 by HPLC analysis.

Test [6] has as its system Staphylococcus aureus. Put plainly: Antibacterial activity against methicillin-resistant Staphylococcus aureus infected in New Zealand white rabbit osteomyelitis model assessed as change in bacterial load in bone per gram of tissue at 500 ug/mg administered via calcium-deficient apatite on day 3 post infection measured on day 7 by HPLC analysis.
For test [7], the system named is Staphylococcus aureus. Put plainly: Antibacterial activity against methicillin-resistant Staphylococcus aureus infected in New Zealand white rabbit osteomyelitis model assessed as change in bacterial load in joint fluid per gram of tissue administered via constant iv infusion on day 3 post infection measured on day 7 by HPLC analysis.
Test [8] concerns Staphylococcus aureus. Nature of the test: Antibacterial activity against methicillin-resistant Staphylococcus aureus infected in New Zealand white rabbit osteomyelitis model assessed as change in bacterial load in bone per gram of tissue administered via constant iv infusion in presence of unloaded calcium-deficient apatites on day 3 post infection measured on day 7 by HPLC analysis.

Test [9] concerns Staphylococcus aureus. Nature of the test: Antibacterial activity against methicillin-resistant Staphylococcus aureus infected in New Zealand white rabbit osteomyelitis model assessed as change in bacterial load in bone per gram of tissue at 25 ug/mg administered via calcium-deficient apatite followed by constant iv infusion on day 3 post infection measured on day 7 by HPLC analysis.

For test [10], the system named is Staphylococcus aureus. Nature of the test: Antibacterial activity against methicillin-resistant Staphylococcus aureus infected in New Zealand white rabbit osteomyelitis model assessed as change in bacterial load in bone marrow per gram of tissue at 500 ug/mg administered via calcium-deficient apatite on day 3 post infection measured on day 7 by HPLC analysis.
The subject of test [11] is Staphylococcus aureus. Nature of the test: Antibacterial activity against methicillin-resistant Staphylococcus aureus infected in New Zealand white rabbit osteomyelitis model assessed as change in bacterial load in bone marrow per gram of tissue at 100 ug/mg administered via calcium-deficient apatite on day 3 post infection measured on day 7 by HPLC analysis.
Test [12] has as its system Staphylococcus aureus. Put plainly: Antibacterial activity against methicillin-resistant Staphylococcus aureus infected in New Zealand white rabbit osteomyelitis model assessed as change in bacterial load in bone marrow per gram of tissue at 25 ug/mg administered via calcium-deficient apatite on day 3 post infection measured on day 7 by HPLC analysis.
Test [13] concerns Staphylococcus aureus. Put plainly: Antibacterial activity against methicillin-resistant Staphylococcus aureus infected in New Zealand white rabbit osteomyelitis model assessed as change in bacterial load in joint fluid per gram of tissue at 100 ug/mg administered via calcium-deficient apatite on day 3 post infection measured on day 7 by HPLC analysis.
Test [14] deals with Staphylococcus aureus. Put plainly: Antibacterial activity against methicillin-resistant Staphylococcus aureus infected in New Zealand white rabbit osteomyelitis model assessed as change in bacterial load in joint fluid per gram of tissue administered via constant iv infusion in presence of unloaded calcium-deficient apatites on day 3 post infection measured on day 7 by HPLC analysis.

In test [15] the test system is Staphylococcus aureus. Put plainly: Antibacterial activity against methicillin-resistant Staphylococcus aureus infected in New Zealand white rabbit osteomyelitis model assessed as change in bacterial load in bone marrow per gram of tissue at 100 ug/mg administered via calcium-deficient apatite followed by constant iv infusion on day 3 post infection measured on day 7 by HPLC analysis.

For test [16], the system named is Staphylococcus aureus. Put plainly: Antibacterial activity against methicillin-resistant Staphylococcus aureus infected in New Zealand white rabbit osteomyelitis model assessed as change in bacterial load in bone marrow per gram of tissue at 25 ug/mg administered via calcium-deficient apatite followed by constant iv infusion on day 3 post infection measured on day 7 by HPLC analysis.

For test [17], the system named is Staphylococcus aureus. Put plainly: Antibacterial activity against methicillin-resistant Staphylococcus aureus infected in New Zealand white rabbit osteomyelitis model assessed as change in bacterial load in bone per gram of tissue at 100 ug/mg administered via calcium-deficient apatite followed by constant iv infusion on day 3 post infection measured on day 7 by HPLC analysis.

The test system of test [18] is Staphylococcus aureus. Nature of the test: Antibacterial activity against methicillin-resistant Staphylococcus aureus infected in New Zealand white rabbit osteomyelitis model assessed as change in bacterial load in bone marrow per gram of tissue administered via constant iv infusion on day 3 post infection measured on day 7 by HPLC analysis.
The subject of test [19] is Staphylococcus aureus. Put plainly: Antibacterial activity against methicillin-resistant Staphylococcus aureus infected in New Zealand white rabbit osteomyelitis model assessed as change in bacterial load in joint fluid per gram of tissue at 500 ug/mg administered via calcium-deficient apatite followed by constant iv infusion on day 3 post infection measured on day 7 by HPLC analysis.

The subject of test [20] is Staphylococcus aureus. Nature of the test: Antibacterial activity against methicillin-resistant Staphylococcus aureus infected in New Zealand white rabbit osteomyelitis model assessed as change in bacterial load in bone marrow per gram of tissue at 500 ug/mg administered via calcium-deficient apatite followed by constant iv infusion on day 3 post infection measured on day 7 by HPLC analysis.

Test [21] relates to Staphylococcus aureus. Nature of the test: Antibacterial activity against methicillin-resistant Staphylococcus aureus infected in New Zealand white rabbit osteomyelitis model assessed as change in bacterial load in joint fluid per gram of tissue at 500 ug/mg administered via calcium-deficient apatite on day 3 post infection measured on day 7 by HPLC analysis.
The subject of test [22] is Staphylococcus aureus. Nature of the test: Antibacterial activity against methicillin-resistant Staphylococcus aureus infected in New Zealand white rabbit osteomyelitis model assessed as change in bacterial load in joint fluid per gram of tissue at 100 ug/mg administered via calcium-deficient apatite followed by constant iv infusion on day 3 post infection measured on day 7 by HPLC analysis.

For test [23], the system named is Staphylococcus aureus. Nature of the test: Antibacterial activity against methicillin-resistant Staphylococcus aureus infected in New Zealand white rabbit osteomyelitis model assessed as change in bacterial load in joint fluid per gram of tissue at 25 ug/mg administered via calcium-deficient apatite on day 3 post infection measured on day 7 by HPLC analysis.

On to `CN[C@H](CC(C)C)C(=O)N[C@H]1C(=O)N[C@@H](CC(N)=O)C(=O)N[C@H]2C(=O)N[C@H]3C(=O)N[C@H](C(=O)N[C@H](C(=O)O)c4cc(O)cc(O)c4-c4cc3ccc4O)[C@H](O)c3ccc(c(Cl)c3)Oc3cc2cc(c3O[C@@H]2O[C@H](CO)[C@@H](O)[C@H](O)[C@H]2O[C@H]2C[C@](C)(N)[C@H](O)[C@H](C)O2)Oc2ccc(cc2Cl)[C@H]1O` [VANCOMYCIN], for which the log10cfu with Staphylococcus aureus [1] was 0.75; in the test with Staphylococcus aureus [2], 2.35; in the test with Staphylococcus aureus [3], 1.97; in the test on Staphylococcus aureus [4] it was 0.61; with Staphylococcus aureus [5], 0.68; with Staphylococcus aureus [6], 3.57. Besides, the log10cfu with Staphylococcus aureus [7] is 0.03; in the test with Staphylococcus aureus [8], 0.35; with Staphylococcus aureus [9], -2.4; with Staphylococcus aureus [10], 4.08; in the test with Staphylococcus aureus [11] it was 3.41; in the test with Staphylococcus aureus [12] it was 1.89. Further, the log10cfu with Staphylococcus aureus [13] is 0.05; in the test with Staphylococcus aureus [14] it was 0.3; in the test with Staphylococcus aureus [15] it was -4.03; with Staphylococcus aureus [16], -3.14; in the test on Staphylococcus aureus [17], -4.63; in the test with Staphylococcus aureus [18], 0.73. Further, the log10cfu is recorded as 1.69 in the test with Staphylococcus aureus [19]; 4.21 with Staphylococcus aureus [20]; 0.29 with Staphylococcus aureus [21]; 0.9 in the test on Staphylococcus aureus [22]; 0.56 with Staphylococcus aureus [23].
